Literature values, collected in the PKSmart pharmacokinetics tables (Seal et al. 2025).

What was measured:
[1] = Lombardo, Berellini, Obach 2018, Drug Metab Dispos 46:1466, doi 10.1124/dmd.118.082966; details: human; for MRT / Vd / clearance / half-life: in vivo, iv; for fraction unbound: plasma
[2] = Lombardo et al. 2013, J Clin Pharmacol 53:178, doi 10.1177/0091270012440282; details: for Vd / clearance: in vivo, iv; for fraction unbound: plasma

Row | Compound | MRT [1] [h] | Vd [1] [L/kg] | clearance [1] [mL/min/kg] | half-life [1] [min] | Vd ([2]; dog) [L/kg] | clearance ([2]; dog) [mL/min/kg] | fraction unbound ([2]; dog) | Vd ([2]; monkey) [L/kg] | clearance ([2]; monkey) [mL/min/kg] | fraction unbound ([2]; monkey) | Vd ([2]; rat) [L/kg] | clearance ([2]; rat) [mL/min/kg] | fraction unbound ([2]; rat) | fraction unbound [1]
1 | C[C@@H]1CCC[C@H](C)N1CCCC(O)(c1ccccc1)c1ccccn1 (stereo partly specified) | 13 | 1.4 | 1.8 | 504 | 2.1 | 8.3 | 0.492 | 0.87 | 4.92 | 0.42 | 2.6 | 62 | 0.49 | –
2 | CCN(CCO)CCCC(C)Nc1ccnc2cc(Cl)ccc12 (stereo unspecified) | 1300 | 700 | 11 | 51000 | – | – | – | – | – | – | 14.6 | 28.2 | 0.62 | 0.57
3 | CN1CCCC(n2nc(Cc3ccc(Cl)cc3)c3ccccc3c2=O)CC1 (stereo unspecified) | 27 | 15 | 9 | 1320 | 8.1 | 50 | 0.0826 | – | – | – | 1.8 | 58 | 0.1 | 0.17
4 | CNC1(c2ccccc2Cl)CCCCC1=O (stereo unspecified) | 2.5 | 2.9 | 19 | 168 | 2.5 | 32.2 | 0.47 | – | – | – | 3.68 | 115 | – | 0.47
5 | CCC(CC)O[C@@H]1C=C(C(=O)O)C[C@H](N)[C@H]1NC(C)=O | 1.3 | 0.37 | 4.8 | 108 | 0.56 | 5.3 | 0.304 | – | – | – | 1.3 | 25 | – | –
6 | CN(C)CCc1c[nH]c2ccc(Cn3cncn3)cc12 | 2 | 1.9 | 16 | 132 | 2.5 | 40 | – | – | – | – | – | 79 | – | –
7 | C[C@]12C=CC(=O)C=C1CC[C@@H]1[C@@H]2[C@@H](O)C[C@@]2(C)[C@H]1CC[C@]2(O)C(=O)CO | – | – | – | – | – | – | – | – | – | – | 1.74 | 98.7 | 0.32 | 0.25
8 | CC#CCC(C)[C@H](O)/C=C/[C@@H]1[C@H]2C/C(=C/CCCC(=O)O)C[C@H]2C[C@H]1O (stereo partly specified) | – | 0.37 | 16 | 34.2 | 0.93 | 67.2 | – | – | – | – | 0.79 | 32.4 | – | 0.4
9 | CC1COc2c(N3CCN(C)CC3)c(F)cc3c(=O)c(C(=O)O)cn1c23 (stereo unspecified) | 11 | 1.6 | 2.5 | 534 | 1.3 | 23.2 | 0.51 | – | – | 0.71 | 1.42 | 13.2 | – | –
10 | O=P(O)(O)C(O)(Cn1ccnc1)P(=O)(O)O | 4.5 | 0.6 | 2.2 | 660 | 0.28 | 4.13 | – | – | – | – | – | – | – | 0.78
11 | CCN(CC)CCNC(=O)c1ccc(NS(C)(=O)=O)cc1 | 3.7 | 0.82 | 3.7 | 228 | 1.4 | 9 | – | – | – | – | 2.08 | 25.6 | – | –
12 | NC[C@H]1O[C@H](O[C@H]2[C@H](O)[C@@H](O[C@H]3O[C@H](CO)[C@@H](O)[C@H](N)[C@H]3O)[C@H](N)C[C@@H]2N)[C@H](N)C[C@@H]1O | 2.4 | 0.23 | 1.6 | 120 | – | – | – | – | – | – | 0.68 | 15.7 | – | 1
13 | CN1C(=O)NC(=O)C(C)(C2=CCCCC2)C1=O (stereo unspecified) | 5.4 | 1.1 | 3.4 | 294 | – | – | – | – | – | – | 2.5 | 40.6 | – | 0.53
14 | CN(C)CCc1c[nH]c2ccc(CS(=O)(=O)N3CCCC3)cc12 | 4.2 | 2.2 | 8.9 | 204 | 3.98 | 28.5 | 0.73 | 2.61 | 40 | 0.699 | 2.7 | 55.8 | 0.72 | 0.6
15 | C[C@@H](CN1CC(=O)NC(=O)C1)N1CC(=O)NC(=O)C1 | 3 | 0.55 | 3.1 | 150 | 0.72 | 11.5 | – | – | – | – | – | – | – | –
16 | CC(C)(C)NCC(O)COc1ccc(NC(=O)NC2CCCCC2)cc1 (stereo unspecified) | 11 | 3.3 | 4.9 | 660 | – | – | – | – | – | – | 4.5 | 47.5 | – | –
17 | O=C(O)CC(NC(=O)CP(=O)(O)O)C(=O)O (stereo unspecified) | 4.51 | 0.33 | 1.22 | 287 | 0.29 | 4.1 | – | 0.2 | 2.3 | – | 1.1 | 17.4 | – | –
18 | Cc1nnc2n1-c1sc(Br)cc1C(c1ccccc1Cl)=NC2 | 6 | 0.75 | 2 | 288 | 6.1 | 11 | – | 6.5 | 13 | – | 3 | 23 | 0.22 | 0.092
19 | CC1(C)S[C@@H]2C(NC(=O)C(N)c3ccc(O)cc3)C(=O)N2C1C(=O)O (stereo partly specified) | 1.3 | 0.25 | 3.3 | 66 | 0.31 | 3.4 | 0.66 | – | – | – | 0.5 | 17 | – | –
20 | CC[C@H](OC(C)=O)C(C[C@H](C)N(C)C)(c1ccccc1)c1ccccc1 | 26 | 8.3 | 5.4 | – | 5.9 | 28 | – | – | – | – | – | – | – | 0.2
21 | NCCC(O)C(=O)N[C@@H]1C[C@H](N)[C@@H](O[C@H]2O[C@H](CN)[C@@H](O)[C@H](O)[C@H]2O)[C@H](O)[C@H]1O[C@H]1O[C@H](CO)[C@@H](O)[C@H](N)[C@H]1O (stereo partly specified) | 2.4 | 0.16 | 1.1 | 144 | 0.2 | 3.5 | – | – | – | – | 0.16 | 5.4 | – | 0.88
